Measurements published in US7713952B2, “2-methylene-19,26,27-trinor-(20S)-1α-hydroxyvitamin D3 and its uses” (Wisconsin Alumni Research Foundation, priority 2004, dated 2010).

Legend:
[1] = tested on: vitamin D-deficient rats; test: Intestinal calcium transport (everted gut sac method); assay type: in vivo, rat; details: FIG. 6
Protocol: (§1) Intestinal Calcium Transport and Bone Calcium Mobilization
(§2) Male, weanling Sprague-Dawley rats were placed on Diet 11 (0.47% Ca) diet +AEK for one week followed by Diet 11 (0.02% Ca) +AEK for 3 weeks. The rats were then switched to a diet containing 0.47% Ca for one week followed by two weeks on a diet containing 0.02% Ca. Dose administration began during the last week on 0.02% calcium diet. Four consecutive ip doses were given approximately 24 hours apart. Twenty-four hours after the last dose, blood was collected from the severed neck and the concentration of serum calcium determined as a measure of bone calcium mobilization. The first 10 cm of the intestine was also collected for intestinal calcium transport analysis using the everted gut sac method.

[2] = tested on: vitamin D-deficient rats; test: Bone calcium mobilization (serum calcium); assay type: in vivo, rat; details: rats on 0.02% Ca diet
Protocol: as §1, §2

[3] = tested on: Human promyelocytic leukemia (HL60) cells; test: HL-60 cell differentiation (nitro blue tetrazolium reduction); assay type: cell-based; details: 4 days, FIG. 2
Protocol: Radiolabeled and unlabeled ligands were added to 100 mcl of the diluted protein at a final ethanol concentration of ≦10%, mixed and incubated overnight on ice to reach binding equilibrium. The following day, 100 mcl of hydroxylapatite slurry (50%) was added to each tube and mixed at 10-minute intervals for 30 minutes. The hydroxylapaptite was collected by centrifugation and then washed three times with Tris-EDTA buffer (50 mM Tris, 1.5 mM EDTA, pH 7.4) containing 0.5% Titron X-100. After the final wash, the pellets were transferred to scintillation vials containing 4 ml of Biosafe II scintillation cocktail, mixed and placed in a scintillation counter. Total binding was determined from the tubes containing only radiolabeled ligand. • HL-60 Differentiation • Test Material Study Drugs
The study drugs were dissolved in ethanol and the concentrations determined using UV spectrophotometry. Serial dilutions were prepared so that a range of drug concentrations could be tested without changing the final concentration of ethanol (≦0.2%) present in the cell cultures. […]
HL60 cells were plated at 1.2×10^5 cells/ml. […] The percentage of differentiated cells was determined by counting a total of 200 cells and recording the number that contained intracellular black-blue formazan deposits. Verification of differentiation to monocytic cells was determined by measuring phagocytic activity (data not shown).

[4] = molecular target: T1, full-length recombinant rat vitamin D receptor (Rattus norvegicus, UniProt P13053); test: Vitamin D receptor competitive binding with [3H]-1,25(OH)2D3; details: full-length recombinant rat VDR; FIG. 1; read-out: Ki, competition with [3H]-1,25(OH)2D3 for binding to vitamin D receptor
T1 construct: Full-length recombinant rat receptor was expressed in E. coli; histidine tag (C); made in house; host or cells: E. coli BL21 (DE3) Codon Plus RIL
T1 sequence (P13053 1-423): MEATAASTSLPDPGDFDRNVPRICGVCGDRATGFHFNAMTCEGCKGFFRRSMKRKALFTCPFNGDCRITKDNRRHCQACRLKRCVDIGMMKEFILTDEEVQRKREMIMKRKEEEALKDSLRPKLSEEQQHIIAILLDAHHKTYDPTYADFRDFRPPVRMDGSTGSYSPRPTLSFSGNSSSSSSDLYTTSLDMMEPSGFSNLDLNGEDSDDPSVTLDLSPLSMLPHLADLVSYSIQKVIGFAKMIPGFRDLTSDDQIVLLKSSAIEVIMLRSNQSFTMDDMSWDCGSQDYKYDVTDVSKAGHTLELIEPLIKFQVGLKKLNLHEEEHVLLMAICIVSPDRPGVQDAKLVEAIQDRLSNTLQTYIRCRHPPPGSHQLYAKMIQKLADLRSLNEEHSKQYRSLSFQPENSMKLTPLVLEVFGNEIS
Protocol: Full-length recombinant rat receptor was expressed in E. coli BL21 (DE3) Codon Plus RIL cells and purified to homogeneity using two different column chromatography systems. The first system was a nickel affinity resin that utilizes the C-terminal histidine tag on this protein. The protein that was eluted from this resin was further purified using ion exchange chromatography (S-Sepharose Fast Flow). Aliquots of the purified protein were quick frozen in liquid nitrogen and stored at −80° C. until use. For use in binding assays, the protein was diluted in TEDK50 (50 mM Tris, 1.5 mM EDTA, pH7.4, 5 mM DTT, 150 mM KCl) with 0.1% Chaps detergent. The receptor protein and ligand concentration were optimized such that no more than 20% of the added radiolabeled ligand was bound to the receptor.
Radiolabeled and unlabeled ligands were added to 100 mcl of the diluted protein at a final ethanol concentration of ≦10%, mixed and incubated overnight on ice to reach binding equilibrium. The following day, 100 mcl of hydroxylapatite slurry (50%) was added to each tube and mixed at 10-minute intervals for 30 minutes. The hydroxylapaptite was collected by centrifugation and then washed three times with Tris-EDTA buffer (50 mM Tris, 1.5 mM EDTA, pH 7.4) containing 0.5% Titron X-100. […]

[5] = tested on: 24-hydroxylase (24Ohase) gene promoter in ROS 17/2.8 (bone) cells; test: In vitro transcription assay (24-hydroxylase promoter luciferase reporter); assay type: cell-based; details: ROS 17/2.8 cells, 24OHase-luciferase, 16 h; FIG. 3; read-out: EC50, transcriptional activity in bone cells
Protocol: In Vitro Transcription Assay
Transcription activity was measured in ROS 17/2.8 (bone) cells that were stably transfected with a 24-hydroxylase (24Ohase) gene promoter upstream of a luciferase reporter gene (Arbour et al., 1998). Cells were given a range of doses. Sixteen hours after dosing the cells were harvested and luciferase activities were measured using a luminometer.
RLU=relative luciferase units.

[6] = 87 or 780 pmol/day ip for 4 days

| EC50 ([3]; Homo sapiens, HL-60, 96 h) [nM] | Ki [4] [nM] | EC50 [5] [nM] | Structure (SMILES) | intestinal calcium transport [1, 6] | serum calcium levels (bone calcium mobilization) ([2]; all dosages, FIG. 4) | EC50 [3] [nM] | intestinal calcium transport ([1]; 7020 pmol/day ip for 4 days) | mobilization of bone calcium (serum calcium) ([2]; 87 pmol/day ip for 4 consecutive days) | mobilization of bone calcium (serum calcium) ([2]; 780 pmol/day and 7020 pmol/day ip for 4 days) |
| --- | --- | --- | --- | --- | --- | --- | --- | --- | --- |
| – | – | – | C=C1/C(=C\C=C2/CCC[C@]3(C)[C@@H]([C@H](C)CCCC(C)(C)O)CC[C@@H]23)C[C@@H](O)C[C@@H]1O [1,25(OH)2D3, 1α,25-dihydroxyvitamin D3, reference compound] | promotes a significant increase | increased serum calcium levels at all dosages | 2.9 | – | – | – |
| 4.7 | 0.077 | 3.2 | C=C1[C@H](O)CC(=C/C=C2\CCC[C@@]3(C)C2CCC3[C@@H](C)CCCC)C[C@H]1O (stereo partly drawn) [OM, 2-methylene-19,26,27-trinor-(20S)-1α-hydroxyvitamin D3] | does not promote intestinal calcium transport | – | – | significant intestinal calcium transport activity was recorded | did not result in mobilization of bone calcium | without any substantial effect |
